One may read the IC50 as the point on the concentration scale where inhibition reaches its midpoint.

Activity calls are given as the source filed them. The rule behind the calls is not given here.

For series [1], the system named is Klebsiella pneumoniae. The series can be described thus: Antibacterial activity against OXA-48-producing Klebsiella pneumoniae SA-Rd-KAMC-014 assessed as reduction in […] growth at 0.01 to 30 uM incubated for 24 hrs by spectrophotometry based broth microdilution assay. In kind it is functional, organism-based. In general terms: Broth dilution looks for growth in wells or tubes with falling amounts of substance.

Series [2] concerns Acinetobacter baumannii. The series can be described thus: Antibacterial activity against OXA-23-producing Acinetobacter baumannii SA-Rd-KAMC-083 assessed as reduction in […] growth at 0.01 to 30 uM incubated for 24 hrs by spectrophotometry based broth microdilution assay. In kind it is functional, organism-based.
In series [3] the test system is NCI-H460. The series can be described thus: Cytotoxicity against human NCI-H460 cells assessed as reduction in cell viability upto 30 uM incubated for 48 hrs by MTT assay. In kind it is cell-based. The conditions noted are these: nci-h460, 48 h.
Series [4] relates to Pseudomonas aeruginosa. The series can be described thus: Antibacterial activity against IMP producing Pseudomonas aeruginosa UAE-DBI-ZMH-91 assessed as reduction in […] growth at 0.01 to 30 uM incubated for 24 hrs by spectrophotometry based broth microdilution assay. Type of series: functional, organism-based.
The test system of series [5] is Klebsiella pneumoniae. The series can be described thus: Antibacterial activity against NDM-producing Klebsiella pneumoniae SA-Rd-KAMC-037 assessed as reduction in […] growth at 0.01 to 30 uM incubated for 24 hrs by spectrophotometry based broth microdilution assay. Type of series: functional, organism-based.
In series [6] the test system is Staphylococcus aureus. As to the kind of experiment: Antibacterial activity against methicillin-resistant Staphylococcus aureus AUS-RBWH-MRSA-02 assessed as reduction in […] growth at 0.01 to 30 uM incubated for 24 hrs by spectrophotometry based broth microdilution assay. Type of series: functional, organism-based.
For series [7], the system named is Enterococcus faecalis. As to the kind of experiment: Antibacterial activity against vancomycin-resistant Enterococcus faecalis AUS-RBWH-VRE-01 assessed as reduction in […] growth incubated for 24 hrs by spectrophotometry based broth microdilution assay. In kind it is functional, organism-based. The conditions noted are these: Enterococcus faecalis, AUS-RBWH-VRE-01, 24 h; read-out: IC50.

In series [8] the test system is Bacillus subtilis. As to the kind of experiment: Antibacterial activity against Bacillus subtilis ATCC 6633 assessed as reduction in […] growth at 0.01 to 30 uM incubated for 24 hrs by spectrophotometry based broth microdilution assay. In kind it is functional, organism-based.
Series [9] has as its system Enterococcus faecalis. As to the kind of experiment: Antibacterial activity against vancomycin-resistant Enterococcus faecalis AUS-RBWH-VRE-01 assessed as fold reduction in growth by measuring colony formation unit at 30 uM incubated for 24 hrs by time kill assay. In kind it is functional.
Series [10] has as its system Escherichia coli. As to the kind of experiment: Antibacterial activity against Escherichia coli KUW-kw-AmH-11 assessed as reduction in […] growth at 0.01 to 30 uM incubated for 24 hrs by spectrophotometry based broth microdilution assay. In kind it is functional, organism-based.
For series [11], the system named is Candida albicans. The series can be described thus: Antifungal activity against Candida albicans ATCC 90028 assessed as reduction in fungal growth at 0.01 to 30 uM incubated for 24 hrs by spectrophotometry based broth microdilution assay. In kind it is functional, organism-based.
The test system of series [12] is SW-620. The series can be described thus: Cytotoxicity against human SW620 cells assessed as reduction in cell viability upto 30 uM incubated for 48 hrs by MTT assay. Type of series: cell-based. To be noted: sw-620, 48 h. Background: Tetrazolium dyes change colour on reduction, which living cells bring about.
Series [13] deals with Pseudomonas aeruginosa. The series can be described thus: Antibacterial activity against VIM producing Pseudomonas aeruginosa SA-EP-KFUH-40 assessed as reduction in […] growth at 0.01 to 30 uM incubated for 24 hrs by spectrophotometry based broth microdilution assay. In kind it is functional, organism-based.
Series [14] relates to Staphylococcus aureus. The series can be described thus: Antibacterial activity against Staphylococcus aureus ATCC 9144 assessed as reduction in […] growth at 0.01 to 30 uM incubated for 24 hrs by spectrophotometry based broth microdilution assay. Type of series: functional, organism-based.
The test system of series [15] is Streptococcus pyogenes. The series can be described thus: Antibacterial activity against Streptococcus pyogenes ATCC 12344 assessed as reduction in […] growth at 0.01 to 30 uM incubated for 24 hrs by spectrophotometry based broth microdilution assay. In kind it is functional, organism-based.
Series [16] deals with Escherichia coli. The series can be described thus: Antibacterial activity against Escherichia coli ATCC 11775 assessed as reduction in […] growth at 0.01 to 30 uM incubated for 24 hrs by spectrophotometry based broth microdilution assay. Type of series: functional, organism-based.
Series [17] is described as follows: Prodrug conversion in vancomycin-resistant Enterococcus faecalis AUS-RBWH-VRE-01 assessed as hydrolysis product butenolide formation at 30 uM incubated for 24 hrs by UHPLC-DAD-ESIMS analysis. In kind it is ADME.
Series [18] is described as follows: Prodrug conversion in vancomycin-resistant Enterococcus faecalis AUS-RBWH-VRE-01 assessed as hydrolysis product trivirensol B formation at 30 uM incubated for 24 hrs by UHPLC-DAD-ESIMS analysis. Type of series: ADME.
A short description of series [19]: Prodrug conversion in vancomycin-resistant Enterococcus faecalis AUS-RBWH-VRE-01 assessed as hydrolysis product divirensol B formation at 30 uM incubated for 24 hrs by UHPLC-DAD-ESIMS analysis. Type of series: ADME.
The test system of series [20] is Enterococcus faecalis. As to the kind of experiment: Antibacterial activity against vancomycin-resistant Enterococcus faecalis AUS-RBWH-VRE-01 assessed as colony formation unit at 30 uM incubated for 24 hrs by time kill assay. In kind it is functional.
The nature of series [21]: Prodrug conversion in vancomycin-resistant Enterococcus faecalis AUS-RBWH-VRE-01 assessed as hydrolysis product butenolide formation at 30 uM incubated for 3-6 hrs by UHPLC-DAD-ESIMS analysis. Type of series: ADME.

For the compound `CC(C)[C@H]1CC[C@@](O)(COC(=O)/C(=C/[C@@H]2[C@@H](C(C)C)CC[C@@](O)(COC(=O)/C(=C/[C@H]3C4=C(CC[C@@H]3C(C)C)COC4=O)CO)[C@H]2C(=O)O)CO)[C@H]2C(=O)OCC(C(=O)O)=C[C@H]12`, the outcome in series [1], in [2], in series [4], in series [5], in series [6] and in series [8] was inactive. Also, the outcome in series [10], in series [11], in [13], in [14], in series [15] and in series [16] was inactive. Also, the Activity result in series [3] and in series [12] was “Non-Toxic” in each case. Further, in [7], the half-inhibitory concentration (IC50) stood at 1 µM. Besides, the “fold change (FC)” value in series [9] was found to be 10000.
With `CC(C)[C@H]1CC[C@@](O)(COC(=O)C2=C[C@@H]3[C@@H](C(C)C)CC[C@@](O)(COC(=O)/C(=C/[C@@H]4[C@@H](C(C)C)CC[C@@]5(O)COC(=O)[C@@H]45)CO)[C@H]3C(=O)OC2)[C@H]2C(=O)OCC(C(=O)O)=C[C@H]12`, the result in series [1], in series [2], in [4], in [5], in series [6] and in series [8] was inactive. The result in series [10], in series [11], in series [13], in series [14], in [15] and in [16] was inactive. Moreover, the Activity entry in series [3] and in series [12] was “Non-Toxic” each time. The IC50 in series [7] worked out at 8 µM. In series [9], the “fold change (FC)” value is listed as 10000. Besides, the Drug metabolism result in series [17] is recorded as “Metabolite_Notdetected”; in series [18], “Metabolite_Detected”.
For `CC(C)[C@H]1CC[C@@](O)(COC(=O)/C(=C/[C@@H]2[C@@H](C(C)C)CC[C@@]3(O)COC(=O)[C@@H]23)CO)[C@H]2C(=O)OCC(C(=O)O)=C[C@H]12`, the result in [1], in series [2], in series [4], in [5], in series [6] and in [8] was inactive. Moreover, the result in series [10], in series [11], in [13], in [14], in series [15] and in series [16] was inactive. Moreover, the Activity entry in [3] and in series [12] was “Non-Toxic” in each case. The results for the Drug metabolism entry in [19] and in series [17] were “Metabolite_Detected” and “Metabolite_Notdetected”, respectively. Besides, the outcome in series [9] was Active.
In the case of `CCCCCCCCCC(=O)N[C@@H](Cc1c[nH]c2ccccc12)C(=O)N[C@H](CC(N)=O)C(=O)N[C@@H](CC(=O)O)C(=O)N[C@@H]1C(=O)NCC(=O)N[C@@H](CCCN)C(=O)N[C@@H](CC(=O)O)C(=O)N[C@H](C)C(=O)N[C@@H](CC(=O)O)C(=O)NCC(=O)N[C@H](CO)C(=O)N[C@@H]([C@H](C)CC(=O)O)C(=O)N[C@@H](CC(=O)c2ccccc2N)C(=O)O[C@@H]1C`, the Activity in series [20] worked out at 50 CFU/ml.
Turning to `CC(C)[C@H]1CC[C@@](O)(COC(=O)/C(=C/[C@@H]2[C@@H](C(C)C)CC[C@@]3(O)COC(=O)[C@@H]23)CO)[C@@H](C(=O)O)[C@@H]1/C=C(\CO)C(=O)O[C@@]12CC[C@H](C(C)C)[C@@H](/C=C(\CO)C(=O)O)[C@@H]1C(=O)OC2`, the outcome in [1], in [2], in [4], in series [5], in series [6] and in [8] was inactive. The outcome in [10], in series [11], in series [13], in [14], in series [15] and in series [16] was inactive. Further, the Activity entry in series [3] and in series [12] was “Non-Toxic” each time. Also, the half-inhibitory concentration (IC50) in series [7] was found to be 10 µM. In addition, the “fold change (FC)” value in [9] worked out at 1000. Moreover, the results for the Drug metabolism entry in series [17] and in series [21] were “Metabolite_Notdetected” and “Metabolite_Detected”, respectively.
With `CC(C)[C@H]1CC[C@@](O)(COC(=O)C2=C[C@@H]3[C@@H](C(C)C)CC[C@@](O)(COC(=O)/C(=C/[C@H]4C5=C(CC[C@@H]4C(C)C)COC5=O)CO)[C@H]3C(=O)OC2)[C@H]2C(=O)OCC(C(=O)O)=C[C@H]12`, the outcome in series [1], in series [2], in [4], in [5], in [6] and in series [8] was inactive. Besides, the outcome in [10], in [11], in [13], in [14], in series [15] and in series [16] was inactive. Moreover, the Activity entry in series [3] and in series [12] was “Non-Toxic” each time. In addition, in [7], the IC50 stood at 1.6 µM. Also, in [9], the “fold change (FC)” value stood at 10000.

(Values after ChEMBL document CHEMBL4334511, “Trivirensols: Selectively Bacteriostatic Sesquiterpene Trimers from the Australian Termite Nest-Derived Fungus Trichoderma virens CMB-TN16” (J Nat Prod, 2019).)
